The values that follow are results of earlier work, collected in patent US20120171239A1, “Immunogenic Conjugates for Producing Immune Responses to Drugs of Abuse and Methods of Use” (priority 2009, published 2012).

The structures appear in SMILES notation. Some results are limits rather than exact numbers.

This series has as its system D2. As to conditions: i.v. injection of 1.0 mg/kg cocaine, PET.

On to `COC(=O)[C@H]1[C@@H](OC(=O)c2ccccc2)C[C@@H]2CC[C@H]1N2C` [cocaine], for which the “reduction of FCP uptake” value is given as not above 40%.
